Test results: the supplement of paper PMC11208160

Experiment: recombinant UMI read abundance after kanamycin selection (control-corrected) (log10(CPM+1)); higher = more efficient recombination; extreme values may be limits of the assay; sequences stand for … in AGTGCAGAGAAAATCGGCCAGTTTTCTCTGCCTGCAGTCCGCATGCCGTGGGACCCCTTGGGTTCTAACCTGTTGCCTAGATTTATGCAGCGGACTGCCTTTCTCCCAAAGTGATAAACCGG…AGGTTGGTTTCACT; site = the 11-nt donor
Protocol: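 Pooled E. coli donor-specificity screen for the IS621 bridge recombinase. Each library member carries a reprogrammed 11-nt donor and a full-length LE bridge RNA expressed in cis from the natural promoter, with a paired donor-binding loop (8-nt LDG + 4-nt RDG) and a target-binding loop fixed to T5. It is co-electroporated with a T5 target plasmid; recombinase is induced with 0.07 mM IPTG and recombinants are selected on kanamycin. UMIs are counted as CPM, averaged over two biological replicates and corrected by the unselected control. Molecule = full bridge RNA written as DNA, built from the T5 scaffold: LDG = donor specificity nt 1-8, RDG = reverse complement of nt 8-11.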
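Also: IS621 bridge recombinase in Escherichia coli cells against a fixed T5 target plasmid.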

Sequence	recombinant UMI read abundance (log10)
AATTTGGCATGGACCGGTTTTCCCGGTAATCCGTATTTGTG (site CATTTGGCTCA)	0.00721
AATTTGGCATGGACCGGTTTTCCCGGTAATCCGTATTTGTG (site GATTTGGCTCA)	0.011
AATTTGGCATGGACCGGTTTTCCCGGTAATCCGTATTTGTG (site TATTTGGCTCA)	0.187
AATTTGTCATGGACCGGTTTTCCCGGTAATCCGTATTTGAT (site AATTTGTCTAT)	0.517
ACAAGGACATGGACCGGTTTTCCCGGTAATCCGTATTTGTT (site ACAAGGACTAA)	2.32
ACAAGTCCATGGACCGGTTTTCCCGGTAATCCGTATTTGTC (site ACAAGTCCTGA)	0
ACACAGCCATGGACCGGTTTTCCCGGTAATCCGTATTTGTC (site ACACAGCCTGA)	0
ACACATCCATGGACCGGTTTTCCCGGTAATCCGTATTTGAC (site AAACATCCTGT)	0
ACACATCCATGGACCGGTTTTCCCGGTAATCCGTATTTGAC (site ACAAATCCTGT)	0
ACACATCCATGGACCGGTTTTCCCGGTAATCCGTATTTGAC (site ACACAACCTGT)	0
ACACATCCATGGACCGGTTTTCCCGGTAATCCGTATTTGAC (site ACACACCCTGT)	0.501
ACACATCCATGGACCGGTTTTCCCGGTAATCCGTATTTGAC (site ACACAGCCTGT)	0.424
ACACATCCATGGACCGGTTTTCCCGGTAATCCGTATTTGAC (site ACACATACTGT)	0.457
ACACATCCATGGACCGGTTTTCCCGGTAATCCGTATTTGAC (site ACACATCCTAT)	0.0886
ACACATCCATGGACCGGTTTTCCCGGTAATCCGTATTTGAC (site ACACATCCTCT)	0.265
ACACATCCATGGACCGGTTTTCCCGGTAATCCGTATTTGAC (site ACACATCCTGA)	0
ACACATCCATGGACCGGTTTTCCCGGTAATCCGTATTTGAC (site ACACATCCTGC)	0
ACACATCCATGGACCGGTTTTCCCGGTAATCCGTATTTGAC (site ACACATCCTGG)	0
ACACATCCATGGACCGGTTTTCCCGGTAATCCGTATTTGAC (site ACACATCCTGT)	1.22
ACACATCCATGGACCGGTTTTCCCGGTAATCCGTATTTGAC (site ACACATCCTTT)	0.421
ACACATCCATGGACCGGTTTTCCCGGTAATCCGTATTTGAC (site ACACATGCTGT)	0
ACACATCCATGGACCGGTTTTCCCGGTAATCCGTATTTGAC (site ACACATTCTGT)	0.87

Sequence	recombinant UMI read abundance (log10)
ACACATCCATGGACCGGTTTTCCCGGTAATCCGTATTTGAC (site ACACCTCCTGT)	0.91
ACACATCCATGGACCGGTTTTCCCGGTAATCCGTATTTGAC (site ACACGTCCTGT)	0.84
ACACATCCATGGACCGGTTTTCCCGGTAATCCGTATTTGAC (site ACACTTCCTGT)	0
ACACATCCATGGACCGGTTTTCCCGGTAATCCGTATTTGAC (site ACAGATCCTGT)	0
ACACATCCATGGACCGGTTTTCCCGGTAATCCGTATTTGAC (site ACATATCCTGT)	0.818
ACACATCCATGGACCGGTTTTCCCGGTAATCCGTATTTGAC (site ACCCATCCTGT)	0
ACACATCCATGGACCGGTTTTCCCGGTAATCCGTATTTGAC (site ACGCATCCTGT)	0
ACACATCCATGGACCGGTTTTCCCGGTAATCCGTATTTGAC (site ACTCATCCTGT)	0
ACACATCCATGGACCGGTTTTCCCGGTAATCCGTATTTGAC (site AGACATCCTGT)	0
ACACATCCATGGACCGGTTTTCCCGGTAATCCGTATTTGAC (site ATACATCCTGT)	0
ACACATCCATGGACCGGTTTTCCCGGTAATCCGTATTTGAC (site CCACATCCTGT)	0.581
ACACATCCATGGACCGGTTTTCCCGGTAATCCGTATTTGAC (site GCACATCCTGT)	0
ACACATCCATGGACCGGTTTTCCCGGTAATCCGTATTTGAC (site TCACATCCTGT)	0.538
ACACATCCATGGACCGGTTTTCCCGGTAATCCGTATTTGGC (site ACACATCCTGA)	0
ACACATCCATGGACCGGTTTTCCCGGTAATCCGTATTTGGC (site ACACATCCTGC)	1.5
ACACATCCATGGACCGGTTTTCCCGGTAATCCGTATTTGGC (site ACACATCCTGG)	0
ACACATCCATGGACCGGTTTTCCCGGTAATCCGTATTTGGC (site ACACATCCTGT)	1.19
ACACCATCATGGACCGGTTTTCCCGGTAATCCGTATTTGAG (site ACACCATCTCT)	1.25
ACACCATCATGGACCGGTTTTCCCGGTAATCCGTATTTGCA (site ACACCATCTTG)	2.8
ACACCATCATGGACCGGTTTTCCCGGTAATCCGTATTTGCA (site ACAGTATCTTG)	1.21
ACACCCTCATGGACCGGTTTTCCCGGTAATCCGTATTTGAC (site ACACCCTCTGT)	3.42
ACACCGTCATGGACCGGTTTTCCCGGTAATCCGTATTTGCC (site ACACCGTCTGG)	3.04

Sequence	recombinant UMI read abundance (log10)
ACACGAACATGGACCGGTTTTCCCGGTAATCCGTATTTGGC (site ACACGAACTGA)	1.19
ACACGAACATGGACCGGTTTTCCCGGTAATCCGTATTTGGC (site ACACGAACTGC)	2.77
ACACGAACATGGACCGGTTTTCCCGGTAATCCGTATTTGGC (site ACACGAACTGG)	0
ACACGAACATGGACCGGTTTTCCCGGTAATCCGTATTTGGC (site ACACGAACTGT)	1.93
ACACGAACATGGACCGGTTTTCCCGGTAATCCGTATTTGTA (site ACACGAACTAA)	0.0114
ACACGAACATGGACCGGTTTTCCCGGTAATCCGTATTTGTA (site ACACGAACTCA)	0.747
ACACGAACATGGACCGGTTTTCCCGGTAATCCGTATTTGTA (site ACACGAACTGA)	1.52
ACACGAACATGGACCGGTTTTCCCGGTAATCCGTATTTGTA (site ACACGAACTTA)	2.52
ACACGATCATGGACCGGTTTTCCCGGTAATCCGTATTTGTC (site ACACGAACTGA)	0.373
ACACGATCATGGACCGGTTTTCCCGGTAATCCGTATTTGTC (site ACACGACCTGA)	0
ACACGATCATGGACCGGTTTTCCCGGTAATCCGTATTTGTC (site ACACGAGCTGA)	0
ACACGATCATGGACCGGTTTTCCCGGTAATCCGTATTTGTC (site ACACGATCTGA)	2.46
ACACGTCCATGGACCGGTTTTCCCGGTAATCCGTATTTGAC (site ACACATCCTGT)	0
ACACGTCCATGGACCGGTTTTCCCGGTAATCCGTATTTGAC (site ACACCTCCTGT)	0
ACACGTCCATGGACCGGTTTTCCCGGTAATCCGTATTTGAC (site ACACGTCCTGT)	0.959
ACACGTCCATGGACCGGTTTTCCCGGTAATCCGTATTTGAC (site ACACTTCCTGT)	0
ACACTAACATGGACCGGTTTTCCCGGTAATCCGTATTTGTC (site ACACAAACTGA)	0
ACACTAACATGGACCGGTTTTCCCGGTAATCCGTATTTGTC (site ACACCAACTGA)	0.94
ACACTAACATGGACCGGTTTTCCCGGTAATCCGTATTTGTC (site ACACGAACTGA)	0
ACACTAACATGGACCGGTTTTCCCGGTAATCCGTATTTGTC (site ACACTAACTGA)	2.12
ACACTATCATGGACCGGTTTTCCCGGTAATCCGTATTTGTA (site ACACTATCTTA)	2.98
